{
  "source": "patent US5795857A",
  "about": "“Mimetic insect pyrokinin analogs for insect control” (The United States of America as represented by the …, priority 1996, dated 1998)",
  "key": {"[1]": {"tested_on": "virgin females of Heliothis virescens", "assay": "Pheromonotropic assay (injection)", "type": "in vivo", "conditions": "0.06-200 pmol, 60 min after injection, FIG. 5", "experimental": "Pupae of H. virescens were obtained from a laboratory colony maintained at the Insect Attractants, Behavior and Basic Biology Research Laboratory, USDA-ARS, in Gainesville, Fla. The pupae were separated by sex and the males were discarded. After eclosion, the females were held in 4-1 cages and provided with cotton wicks soaked with 5% sucrose solution. The insects were held at 25°±2° C, 65±3% relative humidity with a 12:12 (L:D) photoperiod. Virgin females were used for bioassays 2 and 3 days after eclosion during the 7th-8th hour of the photophase when endogenous levels of pheromone are very low (Abernathy, 1995, Regulation of sex pheromone production and oviposition in virgin females of noctuid moths, doctoral dissertation, University of Florida, Gainesville, Fla., pp. 1-107).\nPheromone biosynthesis neuropeptide from H. zea (Hez--PBAN) and the carboranyl pseudopeptide Cbe--Thr--Pro--Arg--Leu--NH2 were dissolved in physiological saline (Christensen et al., 1991, Proc. Natl. Acad. Sci. USA, 88:4971-4975). Female H. virescens insects were injected through the side of the third abdominal segment using a 26-ga needle with 20 μl of the above solutions. Each female received a dose of 0.01, 0.03, 0.1, 0.3, 1, 3, 10, 30, 100 or 300 pmol. After 1 h of incubation, the terminal abdominal segments, which contain the pheromone gland, were excised and placed in 10 μl of hexane containing 10 ng each of internal standards (octadecane and nonadecane) used for quantitation and calculation of relative retention indices. The pheromone gland extracts were analyzed for the amount of (Z)-11-hexadecenal (Z11-16:AL), the major sex pheromone component of H. virescens (Klun et al., 1980, J. Chem. Ecol., 6:165-175) by capillary gas chromatography. Hewlett-Packard 5890 gas chromatographs were equipped with splitless injectors, flame ionization detectors, and 30 m×0.25 mm (i.d.) fused silica \"SPB 10\" (polar) or \"SPB1\" (apolar) columns (Supelco). Conditions of chromatography were as follows: initial temperature=60° C.; injector operated in the splitless mode for 0.5 min; oven temperature increased by 30° C./min after 1 min; final temperature=190° C. (\"SPB10\") or 200° C. (\"SPB1\"); helium carrier gas at a linear flow velocity of 18 cm/s. A Nelson Analytical 3000° acquisition system (Cupertino, Calif.) was used to collect and analyze the data (Teal et al., 1989, Proc. Natl. Acad. Sci. USA, 86:2488-2492).\nAfter the dose response of Hez--PBAN was completed, the […] dose was chosen to use for comparison with the carboranyl pseudopeptide assayed here. Insects were also injected with saline alone as a control. The pseudopeptide was prepared by dilution with saline as described above. Based on the dose-response for the activity of Hez--PBAN, […] were chosen to assess the pheromonotropic activity of the carboranyl pseudopeptide. Females were injected with 20 μl containing 0.01, 0.03, 0.1, 0.3, 1, 3, 10, 30, 100, or 300 pmol. Each bioassay consisted of one dose of several different peptides along with saline and Hez--PBAN controls. The amount of pheromone present in extracts of the pheromone glands of females from each group was compared with that produced by females injected with 5 pmol of Hez--PBAN during that particular bioassay. After all the bioassays were completed, the amount of pheromone produced by each insect was calculated as a percentage of the amount of pheromone produced by females treated with Hez--PBAN. Data were analyzed using one-way ANOVA and t-test with \"STATVIEW\" software. Variability was reported as SEM.\nThe pheromonotropic activity of Hez--PBAN, Lom--MT--II and [6--Pha--Ala^0 ]Lom--MT--II was first determined by a series of injection bioassays. Peptides were dissolved in physiological saline (Christensen et al., ibid) and diluted to concentrations of 0.003, 0.01, 0.03, 0.1, 0.3, 1.0, 3.0 and 10.0 pmol/μl. Insects were injected through the side of the 3rd abdominal segment using a 26 ga. needle with 20 μl of the above solutions. […]"}, "[2]": {"tested_on": "virgin females of Heliothis virescens", "assay": "Pheromonotropic assay (topical application)", "type": "in vivo", "experimental": "The amphiphilic carboranyl analog Cbe--Thr--Pro--Arg--Leu--NH2 was dissolved in water and solutions at concentrations of 5, 10, 25, 60, and 200 pmol/μl were prepared. The cuticular scales along the lateral side of the abdomen were removed with a 1 ml plastic pipet tip attached to house vacuum with a rubber hose. A low vacuum was applied to the apparatus and the pipet tip was gently passed over the cuticle until the scales were drawn by suction. After the scales were removed, 1 μl of peptide solution was applied to the surface of the cuticle and smoothed evenly over the prepared surface. […]\nPupae of Heliothis virescens were obtained from a laboratory colony maintained at the Insect Attractants Behavior and Basic Biology Research Laboratory, USDA-ARS, Gainesville, Fla. The pupae were separated by sex and the females were held in 4-1 cages. Cages were inspected daily for newly eclosed adults which were transferred to new cages and provided with cotton wicks soaked with a 5% sucrose solution. The insects were held at 25°[…] C. and 65%±3% relative humidity with a 12:12 (L:D) photoperiod. Virgin females were used for bioassays 2 and 3 days after eclosion during the 7th-8th hour of the photophase when little or no pheromone is present in the gland (Teal et al., 1993, Can. Entomol., 153:355-366). The cuticular scales were removed from the lateral side of the abdomen using a plastic pipet tip attached to house vacuum using a rubber hose. A low vacuum was applied and the pipet tip was passed gently over the cuticle until the scales were drawn off by suction. Insects were returned to the incubator for 24 h after the scales were removed for most experiments. However, insects were not given a recovery period in studies in which peptides were applied in DMSO (see below).\nIn initial studies we used dimethyl sulfoxide (DMSO) as a carrier to deliver Hez--PBAN or [6--Pha--Ala^0 ]Lom--MT--II for topical applications. […] We also assessed different carrier solvents for their ability to deliver these two peptides. Peptides were dissolved at a concentration of 500 pmol/μl in: DMSO, water, or 80% acetonitrile:20% water. Solutions were applied to the descaled abdomen in 1 μl of solvent as above. The insects were allowed to incubate for 1 h prior to excision and extraction of the pheromone gland. Extracts were analyzed for the amount of pheromone as above.\nThe use of water as a carrier for [6--Pha--Ala^0 ]Lom--MT--II was also assessed in dose response and temporal activity studies. For dose response studies [6--Pha--Ala^0 ]Lom--MT--II was dissolved in water at concentrations of 5, 10, 25, 50, 75, 100, 250, 500, 750 and 1000 pmol/μl. Insects were incubated for 60 min after application of 1 μl of solution to the descaled abdomen. In temporal activity studies a 100 pmol/μl dose was selected. For these experiments insects were incubated for periods of 15, 30, 60, 120, or 180 min after application of 1 μl of solution to the descaled abdomen. The ability of the parent peptide, Lom--MT--II, to stimulate pheromone production when applied topically in water was assessed by applying doses of 50, 100, 250 and 500 pmol to the abdomen. Control treatments for this experiment included insects treated with only water and females treated by topical application of 100 pmol of [6--Pha--Ala^0 ]Lom--MT--II. After incubation the sex pheromone glands were excised, extracted and analyzed for the amount of pheromone."}, "[3]": {"tested_on": "isolated cockroach (Leucophaea maderae) hindgut", "assay": "Cockroach myotropic bioassay (isolated hindgut)", "type": "cell-based", "conditions": "isolated hindgut, FIG. 2; listed as LPK", "experimental": "Leucophaea maderae cockroaches were taken from stock colonies maintained at 27° C. and fed dry dog food ad lib. Cockroach hindguts, free of central nervous system (CNS) tissue, were dissected, immersed in saline, and prepared for recording of myogenic activity as previously described (Holman et al., 1991, ibid). Threshold concentrations were determined for each analogue by adding a known quantity of peptide (dissolved in 0.5 ml bioassay saline) to the bioassay chamber containing the hindgut and observing the response on a Gould 2200S oscillograph recorder. The quantity of the peptide analogues was calculated from the values obtained for Phe and/or Leu in the amino acid analysis. The threshold concentration was defined as the minimum concentration of peptide in the chamber required to evoke an observable change in the frequency (50%) or amplitude of contractions (5%) within 1 min and sustained for 3 min. Threshold concentrations were obtained from five cockroach hindguts on 5 consecutive days for each peptide. Quantitative data for dose-response plots were obtained as previously described (Holman et al., 1991, ibid)."}, "[4]": {"tested_on": "isolated cockroach (Leucophaea maderae) hindgut", "conditions": "values printed with reference numbers; cited from earlier work"}, "corn earworm moth H. zea": {"tested_on": "corn earworm moth H. zea", "conditions": "cited from earlier work"}, "[5]": {"conditions": "in vivo; cited from earlier work"}},
  "note": "“Also recorded” adds a separate entry of the source. Residues, ends and D or L forms follow the SMILES beside them. *: point of attachment. Hexanoyl(6-Ph) = O=C(CCCCCc1ccccc1)*",
  "data": [
    {"molecule": "CC(C)C[C@H](NC(=O)[C@H](CCCNC(=N)N)NC(=O)[C@@H]1CCCN1C(=O)[C@@H](NC(=O)[C@H](Cc1ccccc1)NC(=O)[C@H](CC(=O)O)NC(=O)CNC(=O)[C@H](CCC(=O)O)NC(=O)[C@H](C)NC(=O)CCCCCc1ccccc1)[C@@H](C)O)C(N)=O", "note": "[[6--Pha--Ala^0]Lom--MT--II] ({Hexanoyl(6-Ph)}-AEGDFTPRL-NH2)", "values": [
      {"measurement": "pheromonotropic activity of injected peptide, compared", "setting": "[1]", "value": "reduced the activity, compared to Lom--MT--II, at doses up to 6 pmol; also recorded: equivalent to Hez--PBAN at all other doses"},
      {"measurement": "pheromonotropic activity of injected peptide, compared", "setting": "[1]; listed as [6--Pha--Ala^0]Lom--MT--II", "value": "pheromonotropic activity equivalent to Hez--PBAN"},
      {"measurement": "time after application at which gland extracts contained significant amounts of pheromone", "setting": "[2]; 100 pmol in water, FIG. 9", "value": "≤ 15", "unit": "min"},
      {"measurement": "time of maximal activity after application", "setting": "[2]; 100 pmol in water, FIG. 9", "value": 60, "unit": "min"},
      {"measurement": "pheromone production, topical 500 pmol/female in 80% acetonitrile", "setting": "[2]; 80% acetonitrile in water, 60 min, FIG. 7", "value": "significant amounts of pheromone; also recorded: induced the production of pheromone"},
      {"measurement": "response to topical application of 5 and 10 pmol doses in DMSO", "setting": "[2]; DMSO carrier, 60 min, FIG. 6", "value": "produced pheromone"},
      {"measurement": "amount of pheromone at 100 to 1000 pmol/female, topical in DMSO", "setting": "[2]; DMSO carrier, FIG. 6", "value": "equivalent amounts of pheromone"},
      {"measurement": "pheromone production after topical application in DMSO", "setting": "[2]; DMSO carrier, descaled cuticle", "value": "produced pheromone; also recorded: effective in stimulating pheromone production"},
      {"measurement": "pheromone production, topical 500 pmol/female in DMSO", "setting": "[2]; DMSO, 60 min, FIG. 7", "value": "equivalent amounts of pheromone"},
      {"measurement": "concentration giving maximal pheromone stimulation, topical application", "setting": "[2]; topically applied", "value": 100, "unit": "picomoles/insect"},
      {"measurement": "dose up to which activity increased in a linear fashion (100-1000 pmol not different)", "setting": "[2]; water carrier, 60 min, FIG. 8", "value": 100, "unit": "pmol"},
      {"measurement": "doses stimulating significantly more pheromone than just water, topical in water", "setting": "[2]; water carrier, 60 min, FIG. 8", "value": "≥ 10", "unit": "pmol"},
      {"measurement": "pheromone production, topical 500 pmol/female in water", "setting": "[2]; water, 60 min, FIG. 7", "value": "significant amounts of pheromone"}
    ]},
    {"molecule": "pQTSPhe--Thr--Pro--Arg--Leu--NH2 (pQTS-FTPRL-NH2) [octapeptide leucopyrokinin of the cockroach Leucophaea maderae, reference compound]", "values": [
      {"measurement": "reversibility of myostimulatory response by saline rinse", "setting": "[3]", "value": "immediately reversed by a saline rinse; also recorded: immediately vanished following a saline rinse; also recorded: subsides immediately following a saline rinse"},
      {"measurement": "Threshold Concentration, myostimulation of the isolated cockroach hindgut", "setting": "[4]", "value": 650, "unit": "pM"},
      {"measurement": "Maximal Response via injection (dose)", "setting": "corn earworm moth H. zea; data from H. zea", "value": 70, "unit": "pmol"},
      {"measurement": "ED50, pheromone production via injection", "setting": "corn earworm moth H. zea; data from the related corn earworm moth H. zea", "value": 5, "unit": "pmol"}
    ]},
    {"molecule": "proctolin", "values": [
      {"measurement": "fate of ingested peptide in the gut", "setting": "[5]", "value": "rendered inactive in the gut"}
    ]}
  ]
}
